This assay has as its target human NaV 1.8 (Homo sapiens, UniProt Q9Y5Y9). As to the kind of experiment: E-VIPR assay for detecting and measuring NaV inhibition properties. It counts as cell-based. The note with it: E-VIPR assay conducted in the presence of human serum; HEK cells expressing truncated human NaV 1.8; read-out: IC50. In short, it runs like this:
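HEK cells with truncated human NaV1.8 plus KIR2.1 BacMam, hexyl dye loaded 20 min, compound 30 min at room temperature, 11-point 3-fold series […], 0.625% DMSO, with or without human serum. E-VIPR biphasic stimulation at 10 Hz for 10 s; membrane-potential response read as normalized coumarin/oxonol ratio.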
Chain of human NaV 1.8 (Q9Y5Y9 whole entry, looked up, the tested form may be a part): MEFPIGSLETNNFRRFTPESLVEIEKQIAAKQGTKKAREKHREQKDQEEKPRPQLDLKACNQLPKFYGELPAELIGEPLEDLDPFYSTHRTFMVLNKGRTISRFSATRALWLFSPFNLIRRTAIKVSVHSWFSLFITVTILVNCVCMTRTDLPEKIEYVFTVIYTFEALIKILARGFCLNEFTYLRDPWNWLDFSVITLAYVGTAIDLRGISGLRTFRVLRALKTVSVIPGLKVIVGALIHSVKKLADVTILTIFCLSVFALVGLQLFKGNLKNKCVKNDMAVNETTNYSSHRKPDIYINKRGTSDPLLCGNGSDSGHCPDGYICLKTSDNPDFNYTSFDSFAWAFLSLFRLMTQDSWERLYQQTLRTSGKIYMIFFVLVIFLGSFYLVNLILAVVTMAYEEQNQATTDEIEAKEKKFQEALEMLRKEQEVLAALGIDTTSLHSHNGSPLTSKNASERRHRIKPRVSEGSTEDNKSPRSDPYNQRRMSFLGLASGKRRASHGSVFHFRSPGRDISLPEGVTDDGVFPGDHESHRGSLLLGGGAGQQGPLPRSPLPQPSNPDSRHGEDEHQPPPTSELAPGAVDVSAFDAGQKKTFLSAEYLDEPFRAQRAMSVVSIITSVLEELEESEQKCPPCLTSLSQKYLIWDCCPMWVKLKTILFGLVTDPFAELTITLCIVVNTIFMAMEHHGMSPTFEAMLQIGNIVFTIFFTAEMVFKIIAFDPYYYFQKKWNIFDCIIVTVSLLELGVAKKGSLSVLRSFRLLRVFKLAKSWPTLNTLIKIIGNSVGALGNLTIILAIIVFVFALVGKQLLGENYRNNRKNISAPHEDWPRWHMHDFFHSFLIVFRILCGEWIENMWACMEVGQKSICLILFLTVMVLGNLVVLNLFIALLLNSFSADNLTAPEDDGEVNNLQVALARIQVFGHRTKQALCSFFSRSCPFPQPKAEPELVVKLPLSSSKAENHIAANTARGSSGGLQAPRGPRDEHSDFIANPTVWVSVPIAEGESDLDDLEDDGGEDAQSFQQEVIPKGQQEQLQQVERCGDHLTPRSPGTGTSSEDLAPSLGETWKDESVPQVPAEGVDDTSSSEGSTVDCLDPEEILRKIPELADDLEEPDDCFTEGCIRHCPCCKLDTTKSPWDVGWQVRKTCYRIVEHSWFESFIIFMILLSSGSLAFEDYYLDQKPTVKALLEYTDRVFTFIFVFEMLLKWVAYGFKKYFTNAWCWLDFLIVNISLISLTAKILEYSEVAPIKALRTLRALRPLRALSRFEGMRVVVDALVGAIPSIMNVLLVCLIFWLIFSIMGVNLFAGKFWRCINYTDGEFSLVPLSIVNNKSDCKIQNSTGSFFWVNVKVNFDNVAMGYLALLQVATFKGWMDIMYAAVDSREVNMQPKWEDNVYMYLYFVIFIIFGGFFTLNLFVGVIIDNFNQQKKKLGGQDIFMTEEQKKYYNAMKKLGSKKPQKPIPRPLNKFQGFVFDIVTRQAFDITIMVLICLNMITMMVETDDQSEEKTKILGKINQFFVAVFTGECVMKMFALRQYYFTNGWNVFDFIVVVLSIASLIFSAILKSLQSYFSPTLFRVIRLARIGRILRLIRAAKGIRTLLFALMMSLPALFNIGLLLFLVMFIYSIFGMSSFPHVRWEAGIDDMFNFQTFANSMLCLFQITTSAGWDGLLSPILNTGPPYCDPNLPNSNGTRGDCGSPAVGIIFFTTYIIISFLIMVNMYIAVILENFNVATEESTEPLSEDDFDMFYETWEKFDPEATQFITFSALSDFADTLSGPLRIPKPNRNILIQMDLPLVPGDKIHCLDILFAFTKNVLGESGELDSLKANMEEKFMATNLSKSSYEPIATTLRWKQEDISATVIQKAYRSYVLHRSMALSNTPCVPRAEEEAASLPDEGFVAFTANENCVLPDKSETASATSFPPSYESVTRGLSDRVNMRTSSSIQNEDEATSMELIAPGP
In the case of `[2H]C([2H])([2H])Oc1cc(OC(F)(F)F)ccc1Oc1cc(-c2cccc(C#N)c2)cc(F)c1C(=O)Nc1ccnc(C(N)=O)c1` [Compound 1011, 4-[[4-(3-cyanophenyl)-2-fluoro-6-[2-(trideuteriomethoxy)-4-(trifluoromethoxy)phenoxy]benzoyl]amino]pyridine-2-carboxamide], the IC50 – broadly, the concentration that inhibits the measured activity by half – stood at 470 nM.

As for `[2H]C([2H])([2H])Oc1cc(OC(F)(F)F)ccc1Oc1cc(-c2ccc(C#N)cc2)cc(F)c1C(=O)Nc1ccnc(C(N)=O)c1` [Compound 1012, 4-[[4-(4-cyanophenyl)-2-fluoro-6-[2-(trideuteriomethoxy)-4-(trifluoromethoxy)phenoxy]benzoyl]amino]pyridine-2-carboxamide], the IC50 was 190 nM. Consider `COc1cc(OC(F)(F)F)ccc1Oc1cc(C2=CCC(C(F)(F)F)CC2)cc(F)c1C(=O)Nc1ccnc(C(N)=O)c1` (stereo not shown) [Compound 1013, 4-[[2-fluoro-6-[2-methoxy-4-(trifluoromethoxy)phenoxy]-4-[4-(trifluoromethyl)cyclohexen-1-yl]benzoyl]amino]pyridine-2-carboxamide], for which the IC50 came out at 13 nM. For `COc1cc(OC(F)(F)F)ccc1Oc1cc(C2=CC3CCC2C3)cc(F)c1C(=O)Nc1ccnc(C(N)=O)c1` (stereo not shown) [Compound 1014, 4-[[4-(2-bicyclo[2.2.1]hept-2-enyl)-2-fluoro-6-[2-methoxy-4-(trifluoromethoxy)phenoxy]benzoyl]amino]pyridine-2-carboxamide], the IC50 worked out at 33 nM.

On to `COc1cc(OC(F)(F)F)ccc1Oc1cc(C2=CCC3(CC2)OCCO3)cc(F)c1C(=O)Nc1ccnc(C(N)=O)c1` [Compound 1015, 4-[[4-(1,4-dioxaspiro[4.5]dec-7-en-8-yl)-2-fluoro-6-[2-methoxy-4-(trifluoromethoxy)phenoxy]benzoyl]amino]pyridine-2-carboxamide], for which the half-maximal inhibitory concentration (IC50) amounted to 360 nM.

With `COc1cc(OC(F)(F)F)ccc1Oc1cc(C2=CCC(C(C)(C)C)CC2)cc(F)c1C(=O)Nc1ccnc(C(N)=O)c1` (stereo not shown) [Compound 1016, 4-[[4-(4-tert-butylcyclohexen-1-yl)-2-fluoro-6-[2-methoxy-4-(trifluoromethoxy)phenoxy]benzoyl]amino]pyridine-2-carboxamide], the IC50 came out at 60 nM.

With `[2H]C([2H])([2H])Oc1cc(OC(F)(F)F)ccc1Oc1cc(C2CCOC2)cc(F)c1C(=O)Nc1ccnc(C(N)=O)c1` (stereo not shown) [Compound 1018, 4-[[2-fluoro-4-tetrahydrofuran-3-yl-6-[2-(trideuteriomethoxy)-4-(trifluoromethoxy)phenoxy]benzoyl]amino]pyridine-2-carboxamide], the 50% inhibitory concentration (IC50) is 130 nM.

As for `[2H]C([2H])([2H])Oc1cc(OC(F)(F)F)ccc1Oc1cc(C2CCOCC2)cc(F)c1C(=O)Nc1ccnc(C(N)=O)c1` [Compound 1019, 4-[[2-fluoro-4-tetrahydropyran-4-yl-6-[2-(trideuteriomethoxy)-4-(trifluoromethoxy)phenoxy]benzoyl]amino]pyridine-2-carboxamide], the IC50 turned out to be 79 nM. For `COc1cc(OC(F)(F)F)ccc1Oc1cc(C2CC3CCC2C3)cc(F)c1C(=O)Nc1ccnc(C(N)=O)c1` (stereo not shown) [Compound 1020, 4-[[2-fluoro-6-[2-methoxy-4-(trifluoromethoxy)phenoxy]-4-norboman-2-yl-benzoyl]amino]pyridine-2-carboxamide], the IC50 turned out to be 9 nM.

For the compound `[2H]C([2H])([2H])Oc1cc(OC(F)(F)F)ccc1Oc1cc(C#CCC(C)C)cc(F)c1C(=O)Nc1ccnc(C(N)=O)c1` [Compound 1021, 4-[[2-fluoro-4-(4-methylpent-1-ynyl)-6-[2-(trideuteriomethoxy)-4-(trifluoromethoxy)phenoxy]benzoyl]amino]pyridine-2-carboxamide], the IC50 amounted to 41 nM. As to `[2H]C([2H])([2H])Oc1cc(OC(F)(F)F)ccc1Oc1cc(C#CC(C)(C)C)cc(F)c1C(=O)Nc1ccnc(C(N)=O)c1` [Compound 1022], the half-maximal inhibitory concentration (IC50) was determined as 190 nM. As for `[2H]C([2H])([2H])Oc1cc(OC(F)(F)F)ccc1Oc1cc(C#CC2CC2)cc(F)c1C(=O)Nc1ccnc(C(N)=O)c1` [Compound 1023], the figure is 100 nM. For `[2H]C([2H])([2H])Oc1cc(OC(F)(F)F)ccc1Oc1cc(C#CC2CCC2)cc(F)c1C(=O)Nc1ccnc(C(N)=O)c1` [Compound 1024], the concentration for half-maximal inhibition (IC50) is 150 nM. As for `COc1cc(OC(F)(F)F)ccc1Oc1ccc(C(F)(F)F)c(SC)c1C(=O)Nc1ccnc(C(N)=O)c1` [Compound 1025, 4-[[6-[2-methoxy-4-(trifluoromethoxy)phenoxy]-2-methylsulfanyl-3-(trifluoromethyl)benzoyl]amino]pyridine-2-carboxamide], the figure is 2 nM; as for `COc1cc(OC(F)(F)F)ccc1Oc1ccc(C(F)(F)F)c(OCCN(C)C)c1C(=O)Nc1ccnc(C(N)=O)c1` [Compound 1027], greater than 3000 nM. In the case of `COc1cc(OC(F)(F)F)ccc1Oc1ccc(C(F)(F)F)c(OCCC2CC2)c1C(=O)Nc1ccnc(C(N)=O)c1` [Compound 1028], the IC50 stood at 590 nM. The value for `COc1cc(OC(F)(F)F)ccc1Oc1cc(C2=CCC(C(F)(F)F)CC2)ccc1C(=O)Nc1ccnc(C(N)=O)c1` (stereo not shown) [Compound 1029, 4-[[2-[2-methoxy-4-(trifluoromethoxy)phenoxy]-4-[4-(trifluoromethyl)cyclohexen-1-yl]benzoyl]amino]pyridine-2-carboxamide] was 695 nM. Take `COc1cc(OC(F)(F)F)ccc1Oc1cc(C2=CCOC2)ccc1C(=O)Nc1ccnc(C(N)=O)c1` [Compound 1030]: the IC50 was determined as 330 nM. For `COc1cc(OC(F)(F)F)ccc1Oc1cc(C2=CCC(C(F)(F)F)CC2)ccc1C(=O)Nc1ccnc(C(N)=O)c1` (stereo not shown) [Compound 1031], the IC50 stood at 2050 nM.

For the compound `COc1cc(OC(F)(F)F)ccc1Oc1cc(C2CCOC2)ccc1C(=O)Nc1ccnc(C(N)=O)c1` (stereo not shown) [Compound 1033], the IC50 stood at 840 nM. Take `COc1cc(OC(F)(F)F)ccc1Oc1cc2c(c(F)c1C(=O)Nc1ccc(C(N)=O)nc1)OCCO2` [Compound 1034, 5-[[5-fluoro-7-[2-methoxy-4-(trifluoromethoxy)phenoxy]-2,3-dihydro-1,4-benzodioxine-6-carbonyl]amino]pyridine-2-carboxamide]: the 50% inhibitory concentration (IC50) came out at 160 nM.

For the compound `COc1cc(OC(F)(F)F)ccc1Oc1cc2c(c(F)c1C(=O)Nc1ccnc(C(N)=O)c1)OCCO2` [Compound 1035], the IC50 came to 17 nM. The value for `[2H]C([2H])([2H])Oc1cc(OC(F)(F)F)ccc1Oc1cc2c(cc1C(=O)Nc1ccnc(C(N)=O)c1)OCCO2` [Compound 1036, 4-[[6-[2-(trideuteriomethoxy)-4-(trifluoromethoxy)phenoxy]-2,3-dihydro-1,4-benzodioxine-7-carbonyl]amino]pyridine-2-carboxamide] was 1750 nM; that for `[2H]C([2H])([2H])Oc1cc(OC(F)(F)F)ccc1Oc1cc2c(cc1C(=O)Nc1ccc(C(N)=O)nc1)OCCO2` [Compound 1037] was greater than 3000 nM; that for `COc1cc(OC(F)(F)F)ccc1Oc1cc(OC2C=C(F)C2)cc(C)c1C(=O)Nc1ccnc(C(N)=O)c1` (stereo not shown) [Compound 1038, 4-[[4-(3-fluorocyclobut-2-en-1-yl)oxy-2-[2-methoxy-4-(trifluoromethoxy)phenoxy]-6-methyl-benzoyl]amino]pyridine-2-carboxamide] was 170 nM.

The values are drawn from patent US12441703B2, “Carboxamides as modulators of sodium channels” (VERTEX PHARMACEUTICALS INCORPORATED, priority 2019, dated 2025).
